# Assay results taken from US6537804B1, “BCR-ABL directed compositions and uses for inhibiting Philadelphia chromesome stimulated cell growth” (Board of Regents, The University of Texas Systems, priority 1995, dated 2003).
# Key:
# Assay type in all cases: cell-based, human
# SUP-B15 cells [1] = assay: Growth of SUP-B15 cells, trypan blue exclusion
# Protocol: FIG. 20A, B15 cells cultured in 20% FCS containing RPMI media with either the 3′ BCR antisense oligonucleotides (10 μM at day 1) (open squares) or the sense oligonucleotides (10 μM at day 1) (closed squares).
# The biological effects of the 3′ BCR antisense oligonucleotide treatment were tested on SUP-B15 cells. SUP-B15 cells were seeded in triplicate wells at a concentration of 1.6×10^5 cells/ml in a 200 μl volume of RPMI media supplemented with 20% FCS. Oligonucleotides were added to the cells at a final concentration of 10 μM. Cell number was monitored by trypan blue exclusion assay for 9 days. The mean cell number of the triplicates was determined each day (FIG. 20A).
# P185 BCR-ABL = assay: Western blotting with anti-Abl monoclonal antibody 8E9 of treated SUP-B15 cells
# Protocol: (§1) SUP-B15 cells express p185 BCR-ABL; they were derived from a patient with Philadelphia chromosome-positive ALL. One-tenth of the cells harvested in the study shown in FIG. 13 was assayed for Bcr-Abl expression by Western blotting with the anti-Abl monoclonal antibody 8E9. […] Similarly, the Abl protein was reduced about 26% in the anti-sense treated culture compared to sense. Quantitation was done by a densitometer SI unit (Molecular Dynamics).
# (§2) In this study, equal amounts of the sense and the antisense oligonucleotide treated B15 cells were analyzed.
# M3.16 cells = assay: Growth of M3.16 cells, trypan blue exclusion; conditions: DMEM 10% FCS, 10 μM at day 1, half at day 5, light microscopy at day 9
# Protocol: FIG. 20B, M3.16 cells cultured in 10% FCS containing DMEM media with either the 3′ BCR antisense oligonucleotides (open squares) or the sense oligonucleotide (closed squares) as above. Oligonucleotides were added at day 1 at a final concentration of 10 μM and added again at day 5 at half of the initial concentration. Cell viability was determined by trypan blue dye exclusion. The data are the mean +/−SEM of a triplicate analysis.
# For this particular study, the cell number was followed up for a longer period of time (11 days) and oligonucleotides were added again at day 5 at half of the initial concentration.
# SUP-B15 cells [2] = assay: Survival of SUP-B15 cells in low serum, trypan blue exclusion; conditions: 5% FCS, 10 μM
# Protocol: SUP-B15 cells (2×10^6 cells) were maintained in RPMI medium containing 5% fetal calf serum. Cells will not grow under these conditions and will slowly die off since cell growth requires 20% serum. Cells were treated with the 3′ BCR anti-sense (open squares) or sense oligo (closed squares) at a concentration of 10 μM. The number of viable cells was determined by trypan blue dye exclusion. The data are expressed as the mean (+/−SEM) of three replicates.
# B15 cells were cultured in a low serum containing media [5% fetal calf serum (FCS)]. These cells normally require 20% FCS. A batch of B15 cells (2.2×10^6/ml) was cultured in RPMI containing 5% FCS. 200 μl of this suspension was seeded into each well of a 96 well culture plate. Either the antisense or sense oligonucleotides were added to the culture at a final concentration of 10 μM. The cell numbers were determined as an average of the triplicates and plotted in FIG. 14.
# [3] = system: p160 BCR/p185 BCR-ABL complexes; assay: Co-precipitated Bcr-Abl in anti-BCR (1256-1271) immunokinase assay of treated SUP-B15 cells; conditions: antisense compared to sense treated
# Protocol: (§3) SUP B15 cells were treated with anti-sense BCR oligonucleotides as in FIG. 12. Equal amounts of cells processed from sense and antisense treated cultures were harvested at day 7. Cells were analyzed for Bcr protein and Bcr/Bcr-Abl complexes by assaying with an antibody to the carboxy terminal of Bcr, as described (Liu et al., 1993). Lane 1 is an SDS gel pattern of the sense treated culture; lane 2 is the assay performed with peptide-blocked antibody. Lane 3 is the pattern from anti-sense treated culture; lane 4 is the peptide-blocked control. […] Quantitation measurements indicate that the level of Bcr protein was reduced about 10-fold by antisense treatment compared to sense, when normalized for the amount of Abl protein in the cultures.
# as §2
# (§4) These antibodies detect Bcr directly but not Bcr-Abl protein. However because Bcr can complex with Bcr-Abl, this assay also detects Bcr-Abl which is co-precipitated along with Bcr.
# p160 BCR = assay: Immunokinase assay with anti-BCR (1256-1271) on oligonucleotide treated SUP-B15 cells
# Protocol: as §3
# The effects of the sense and antisense 3′ BCR oligonucleotides were tested on BCR expression in SUP-B15 cells, a cell line derived from a Ph^1-positive acute lymphocytic leukemia patient that expresses p185 BCR-ABL. Immunokinase assays were performed with anti-BCR (1256-1271) peptide antibody (the antibody detects Bcr proteins but not Bcr-Abl proteins) to determine the level of BCR expression in B15 cells after 7 days treatment with either the sense or antisense 3′ BCR oligonucleotides (FIG. 13, lanes 1 and 3).
# as §4
# Incubation of these immune complexes with labeled ATP causes tyrosine phosphorylation of Bcr by Bcr-Abl and autophosphorylation of Bcr-Abl (Liu et al., 1993). […] Using Abl Western blot data as an internal control for mass, the specific reduction in Bcr is estimated to be about 10-fold.
# c-Abl = assay: Western blotting with anti-Abl monoclonal antibody 8E9 of treated SUP-B15 cells
# Protocol: as §1
# Using c-Abl as an internal control, the actual reduction of p160 BCR in B15 cells by the antisense treatment is about 10 fold.
substance,measurement,setting,value
"5′ATCATCACCGACACATCC 3′ (phosphotriester linkages at both ends, further chemistry not given here) [3′ BCR antisense oligonucleotide]",Growth density compared to sense oligonucleotide treatment,"SUP-B15 cells [1]; RPMI 20% FCS, 10 μM, 9 days",sustained a higher growth density
same,Live cells relative to sense treated cultures,SUP-B15 cells [1]; seven days in culture,twice
same,"Reduction in Bcr-Abl protein, anti-sense compared to sense","P185 BCR-ABL; Western blot 8E9, densitometer",35%
same,Expression of p185 BCR-ABL,P185 BCR-ABL; Western blot with anti-Abl monoclonal antibody,not significantly altered
same,"Reduction of Bcr-Abl level, antisense versus sense treated cells",P185 BCR-ABL; quantitation of FIG. 12,about 1.6 fold
same,Confluence compared to sense treated cells,M3.16 cells,more confluent
same,Survival compared to sense oligonucleotide treatment,SUP-B15 cells [2],increased survival
same,Number of viable cells relative to sense-treated cells,SUP-B15 cells [2]; after five days of treatment,about twice
same,Amount of p160 BCR/p185 BCR-ABL complexes,[3],reduced
same,"Level of BCR protein, antisense compared with sense treated cells",p160 BCR; 7 days treatment,much lower levels
same,Reduction of p160 BCR normalized for the amount of Abl protein (c-Abl as internal control),"p160 BCR; day 7, antisense compared to sense",about 10 fold
same,"Reduction of p160 BCR, antisense versus sense treated cells","p160 BCR; day 7, densitometer quantitation of FIG. 13 lanes 1 and 3",about 14 times
same,Reduction of the amount of Bcr by anti-sense,"p160 BCR; seven days, phosphorimager analyses",about 14 fold
same,"Reduction in Abl protein, anti-sense compared to sense","c-Abl; Western blot 8E9, densitometer",about 26%
same,"Reduction of c-Abl level, antisense versus sense treated cells",c-Abl; quantitation of FIG. 12,~1.35 fold
